pEC50, pIC50: −log10 of the molar value.

The target of one test is T1, HBV core protein (C-terminal truncated, 149 aa assembly domain) (Hepatitis B virus genotype D subtype adw, UniProt P03147, C107A/C48A/C61A).
T1 construct: The C-terminal truncated core protein containing 149 amino acids of the N-terminal assembly domain; made in house; host or cells: E. coli BL21 (DE3) Rosetta2, plasmid pET21b
T1 sequence (P03147 1-150, looked up, stated change not applied): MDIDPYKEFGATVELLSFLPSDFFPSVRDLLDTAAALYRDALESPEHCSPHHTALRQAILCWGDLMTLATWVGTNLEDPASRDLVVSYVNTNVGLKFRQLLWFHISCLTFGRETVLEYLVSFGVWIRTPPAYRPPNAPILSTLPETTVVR
Nature of the test: Biochemical capsid assembly assay (fluorescence quenching).
Conditions: not given
How it is done:
Biochemical Capsid Assembly Assay
The screening for assembly effector activity was done based on a fluorescence quenching assay published by Zlotnick et al. (2007). The C-terminal truncated core protein containing 149 amino acids of the N-terminal assembly domain fused to a unique cysteine residue at position 150 and was expressed in E. coli using the pET expression system (Merck Chemicals, Darmstadt). Purification of core dimer protein was performed using a sequence of size exclusion chromatography steps. In brief, the cell pellet from 1 L BL21 (DE3) Rosetta2 culture expressing the coding sequence of core protein cloned NdeI/XhoI into expression plasmid pET21b was treated for 1 h on ice with a native lysis buffer (Qproteome Bacterial Protein Prep Kit; Qiagen, Hilden). After a centrifugation step the supernatant was precipitated during 2 h stirring on ice with 0.23 g/ml of solid ammonium sulfate. Following further centrifugation the resulting pellet was resolved in buffer A (100 mM Tris, pH 7.5; 100 mM NaCl; 2 mM DTT) and was subsequently loaded onto a buffer A equilibrated CaptoCore 700 column (GE HealthCare, Frankfurt). The column flow through containing the assembled HBV capsid was dialyzed against buffer N (50 mM NaHCO3 pH 9.6; 5 mM DTT) before urea was added to a final concentration of 3M to dissociate the capsid into core dimers for 1.5 h on ice. The protein solution was then loaded onto a 1 L Sephacryl 5300 column. After elution with buffer N core dimer containing fractions were identified by SDS-PAGE and subsequently pooled and dialyzed against 50 mM HEPES pH 7.5; 5 mM DTT. To improve the assembly capacity of the purified core dimers a second round of assembly and disassembly starting with the addition of 5 M NaCl and including the size exclusion chromatography steps described above was performed. From the last chromatography step core dimer containing fractions were pooled and stored in aliquots at concentrations between 1.5 to 2.0 mg/ml at −80° C.
Immediately before labelling the core protein was reduced by adding freshly prepared DTT in a final concentration of 20 mM. After […] on ice storage buffer and DTT was removed using a Sephadex G-25 column (GE HealthCare, Frankfurt) and 50 mM HEPES, pH 7.5. For labelling 1.6 mg/ml core protein was incubated at 4° C. and darkness overnight with BODIPY-FL maleimide (Invitrogen, Karlsruhe) in a final concentration of 1 mM. After labelling the free dye was removed by an additional desalting step using a Sephadex G-25 column. Labelled core dimers were stored in aliquots at 4° C. In the dimeric state the fluorescence signal of the labelled core protein is high and is quenched during the assembly of the core dimers to high molecular capsid structures. The screening assay was performed in black 384 well microtiter plates in a total assay volume of 10 μl using 50 mM HEPES pH 7.5 and 1.0 to 2.0 μM labelled core protein. Each screening compound was added in 8 different concentrations using a 0.5 log-unit serial dilution starting at a final concentration of 100 μM, 31.6 μM or 10 μM, In any case the DMSO concentration over the entire microtiter plate was 0.5%. The assembly reaction was started by the injection of NaCl to a final concentration of […] which induces the assembly process to approximately 25% of the maximal quenched signal. 6 min after starting the reaction the fluorescence signal was measured using a Clariostar plate reader (BMG Labtech, Ortenberg) with an excitation of 477 nm and an emission of 525 nm. As 100% and 0% assembly control HEPES buffer containing 2.5 M and 0 M NaCl was used. Experiments were performed thrice in triplicates. EC50 values were calculated by non-linear regression analysis using the Graph Pad Prism 6 software (GraphPad Software, La Jolla, USA).
Molecule `O=C(c1cc2ccccn2c1)N1CCc2onc(-c3cscn3)c2C1` [Example 36, 2-[3-(1,3-thiazol-4-yl)-4H,5H,6H,7H-[1,2]oxazolo[4,5-c]pyridine-5-carbonyl]indolizine] had a pIC50 of more than 5.30.

The test is the same for the next values; noted with them: BODIPY-FL labelled core protein, assembly started with NaCl, read after 6 min; read-out: Assembly Activity.
Regarding `O=C(c1cc2ccccn2c1)N1CCc2[nH]nc(-n3ccnn3)c2C1` [Example 28, 2-[3-(1H-1,2,3-triazol-1-yl)-1H,4H,5H,6H,7H-pyrazolo[4,3-c]pyridine-5-carbonyl]indolizine], the pIC50 is more than 4.00.

`O=C(NCC1CCCO1)c1[nH]nc2c1CN(C(=O)c1cc3ccccn3c1)CC2` (stereo not shown) [Example 29, 5-(indolizine-2-carbonyl)-N-[(oxolan-2-yl)methyl]-2H,4H,5H,6H,7H-pyrazolo[4,3-c]pyridine-3-carboxamide]: the pIC50 is more than 4.00.

Regarding `O=C(NCC1CCCOC1)c1[nH]nc2c1CN(C(=O)c1cc3ccccn3c1)CC2` (stereo not shown) [Example 30, 5-(indolizine-2-carbonyl)-N-[(oxan-3-yl)methyl]-2H,4H,5H,6H,7H-pyrazolo[4,3-c]pyridine-3-carboxamide], the pIC50 is more than 4.00.

On to `O=C(c1cc2ccccn2c1)N1CCc2[nH]nc(-c3ccon3)c2C1` [Example 31, 2-[3-(1,2-oxazol-3-yl)-1H,4H,5H,6H,7H-pyrazolo[4,3-c]pyridine-5-carbonyl]indolizine], for which the pIC50 is more than 5.30.

As for `O=C(NC1(C(F)(F)F)CC1)c1[nH]nc2c1CN(C(=O)c1cc3ccccn3c1)CC2` [Example 33, 5-(indolizine-2-carbonyl)-N-[1-(trifluoromethyl)cyclopropyl]-2H,4H,5H,6H,7H-pyrazolo[4,3-c]pyridine-3-carboxamide], the pIC50 is more than 4.00.

`O=C(c1cc2ccccn2c1)N1CCc2noc(-c3cscn3)c2C1` [Example 34, 2-[3-(1,3-thiazol-4-yl)-4H,5H,6H,7H-[1,2]oxazolo[4,3-c]pyridine-5-carbonyl]indolizine]: the pIC50 was more than 5.30.

Turning to `CC(C)(NC(=O)c1[nH]nc2c1CN(C(=O)c1cc3ccccn3c1)CC2)C(F)(F)F` [Example 35, 5-(indolizine-2-carbonyl)-N-(1,1,1-trifluoro-2-methylpropan-2-yl)-2H,4H,5H,6H,7H-pyrazolo[4,3-c]pyridine-3-carboxamide], the pIC50 was more than 4.00.

For the molecule `O=C(c1cc2ccccn2c1)N1CCc2[nH]nc(-c3cscn3)c2C1` [Example 37, 2-[3-(1,3-thiazol-4-yl)-1H,4H,5H,6H,7H-pyrazolo[4,3-c]pyridine-5-carbonyl]indolizine], the pIC50 is more than 5.30.

For `CC(NC(=O)c1[nH]nc2c1CN(C(=O)c1cc3ccccn3c1)CC2)C1COC1` (stereo not shown) [Example 41, 5-(indolizine-2-carbonyl)-N-[1-(oxetan-3-yl)ethyl]-2H,4H,5H,6H,7H-pyrazolo[4,3-c]pyridine-3-carboxamide], the pIC50 was more than 4.00.

With `O=C(c1cc2ccccn2c1)N1CCn2ncc(-c3cscn3)c2C1` [Example 43, 2-[3-(1,3-thiazol-4-yl)-4H,5H,6H,7H-pyrazolo[1,5-a]pyrazine-5-carbonyl]indolizine], the pIC50 is more than 5.30.

Turning to `CC1Cc2[nH]nc(-c3cscn3)c2CN1C(=O)c1cc2c(F)cc(F)cn2c1` (stereo not shown) [Example 44, 6,8-difluoro-2-[6-methyl-3-(1,3-thiazol-4-yl)-1H,4H,5H,6H,7H-pyrazolo[4,3-c]pyridine-5-carbonyl]indolizine], the pIC50 is more than 5.30.

As to `C[C@H](NC(=O)c1[nH]nc2c1CN(C(=O)c1cc3ccccn3c1)CC2)C(F)(F)F` [Example 45, 5-(indolizine-2-carbonyl)-N-[(2S)-1,1,1-trifluoropropan-2-yl]-2H,4H,5H,6H,7H-pyrazolo[4,3-c]pyridine-3-carboxamide], the pIC50 was more than 4.00.

Take `C[C@@H](NC(=O)c1[nH]nc2c1CN(C(=O)c1cc3ccccn3c1)CC2)C(F)(F)F` [Example 46, 5-(indolizine-2-carbonyl)-N-[(2R)-1,1,1-trifluoropropan-2-yl]-2H,4H,5H,6H,7H-pyrazolo[4,3-c]pyridine-3-carboxamide]: the pIC50 was more than 4.00.

For the molecule `CC1Cc2n[nH]c(C(=O)NC(C)C(F)(F)F)c2CN1C(=O)c1cc2c(Cl)cccn2c1` (stereo not shown) [Example 47, 5-(8-chloroindolizine-2-carbonyl)-6-methyl-N-(1,1,1-trifluoropropan-2-yl)-2H,4H,5H,6H,7H-pyrazolo[4,3-c]pyridine-3-carboxamide], the pIC50 was more than 4.00.

As to `CC1Cc2n[nH]c(C(=O)NC(C)C(F)(F)F)c2CN1C(=O)c1cc2ccccn2c1` (stereo not shown) [Example 48, 5-(indolizine-2-carbonyl)-6-methyl-N-(1,1,1-trifluoropropan-2-yl)-2H,4H,5H,6H,7H-pyrazolo[4,3-c]pyridine-3-carboxamide], the pIC50 is more than 4.00.

Another test has as its system HBV. Description: HBV replication assay: HBV DNA from the supernatants of HepAD38 cells. It is filed as cell-based. The note with it: Hepatitis B virus, 144 h, HBV DNA in supernatant by qPCR at day 6, read-out: Cell Activity. On the procedure:
Determination of HBV DNA from the Supernatants of HepAD38 Cells
The anti-HBV activity was analysed in the stable transfected cell line HepAD38, which has been described to secrete high levels of HBV virion particles (Ladner et al., 1997). In brief, HepAD38 cells were cultured at 37° C. at 5% CO2 and 95% humidity in 200 μl maintenance medium, which was Dulbecco's modified Eagle's medium/Nutrient Mixture F-12 (Gibco, Karlsruhe), 10% fetal bovine serum (PAN Biotech Aidenbach) supplemented with 50 μg/ml penicillin/streptomycin (Gibco, Karlsruhe), 2 mM L-glutamine (PAN Biotech, Aidenbach), 400 μg/ml G418 (AppliChem, Darmstadt) and 0.3 μg/ml tetracycline. Cells were subcultured once a week in a 1:5 ratio, but were usually not passaged more than ten times. For the assay 60,000 cells were seeded in maintenance medium without any tetracycline into each well of a 96-well plate and treated with serial half-log dilutions of test compound. To minimize edge effects the outer 36 wells of the plate were not used but were filled with assay medium. On each assay plate six wells for the virus control (untreated HepAD38 cells) and six wells for the cell control (HepAD38 cells treated with 0.3 μg/ml tetracycline) were allocated, respectively. In addition, one plate set with reference inhibitors like BAY 41-4109, entecavir, and lamivudine instead of screening compounds were prepared in each experiment. In general, experiments were performed thrice in triplicates. At day 6 HBV DNA from 100 μl filtrated cell culture supernatant (AcroPrep Advance 96 Filter Plate, […] Supor membran, PALL GmbH, Dreieich) was automatically purified on the MagNa Pure LC instrument using the MagNA Pure 96 DNA and Viral NA Small Volume Kit (Roche Diagnostics, Mannheim) according to the instructions of the manufacturer. EC50 values were calculated from relative copy numbers of HBV DNA In brief, 5 μl of the 100 μl eluate containing HBV DNA were subjected to PCR LC480 Probes Master Kit (Roche) together with 1 μM antisense primer […], 0.5 μM sense primer […], 0.3 μM hybprobes […]-FL and LC640-[…]-PH (TIBMolBiol, Berlin) to a final volume of […]. The PCR was performed on the Light Cycler 480 real time system (Roche Diagnostics, Mannheim) using the following protocol: Pre-incubation for 1 min at 95° C., amplification: 40 cycles×(10 sec at 95° C., 50 sec at 60° C., 1 sec at 70° C.), cooling for 10 sec at 40° C. Viral load was quantitated against known standards using HBV plasmid DNA of pCH-9/3091 (Nassal et al., 1990, Cell 63: 1357-1363) and the LightCycler 480 SW 1.5 software (Roche Diagnostics, Mannheim) and EC50 values were calculated using non-linear regression with GraphPad Prism 6 (GraphPad Software Inc., La Jolla, USA).
For orientation: Real-time PCR tracks product formation cycle by cycle.
With `O=C(c1cc2c(Cl)cccn2c1)N1CCc2n[nH]c(C(=O)N3CC(F)(F)CC34CC4)c2C1` [Example 1, 8-chloro-2-(3-{6,6-difluoro-4-azaspiro[2.4]heptane-4-carbonyl}-2H,4H,5H,6H,7H-pyrazolo[4,3-c]pyridine-5-carbonyl)indolizine], the pEC50 is 5.00 to 6.00.

As to `O=C(c1cc2c(F)cc(F)cn2c1)N1CCc2n[nH]c(C(=O)N3CC(F)(F)CC34CC4)c2C1` [Example 2, 6,8-difluoro-2-(3-{6,6-difluoro-4-azaspiro[2.4]heptane-4-carbonyl}-2H,4H,5H,6H,7H-pyrazolo[4,3-c]pyridine-5-carbonyl)indolizine], the pEC50 was 5.00 to 6.00.

Turning to `CC1Cc2[nH]nc(-c3cscn3)c2CN1C(=O)c1cn2ccccc2c1Br` (stereo not shown) [Example 11, 1-bromo-2-[6-methyl-3-(1,3-thiazol-4-yl)-1H,4H,5H,6H,7H-pyrazolo[4,3-c]pyridine-5-carbonyl]indolizine], the pEC50 was 5.00 to 6.00.

The record behind these values is patent publication US20220227789A1, “NOVEL INDOLIZINE-2-CARBOXAMIDES ACTIVE AGAINST THE HEPATITIS B VIRUS (HBV)” (AiCuris GmbH & Co. KG, priority 2019, published 2022).
